Legend:
human H3 receptor [1] = target: T1, human H3 receptor (Homo sapiens, UniProt Q9Y5N1); assay: In vitro H3 binding assay (3H-N-α-methyl-histamine competition binding); conditions: membranes of CHO-K1 cells expressing human H3 receptor; 2 nM 3H-NαMH; read-out: hH3 binding IC50
T1 construct: expressed in transfected cells
Procedure, shortened: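 Membranes from CHO-K1 cells stably expressing human H3 (5 μg/well) incubated 1 h at room temperature with compound and 2 nM ³H-NαMH in 50 mM Tris-HCl pH 7.4, 5 mM MgCl2; non-specific binding defined with 1 μM RαMH. Bound radioactivity measured by filtration and scintillation; IC50 from seven-point curves by variable-slope sigmoidal regression.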

human H3 receptor [2] = target: T1, human H3 receptor; assay: In vitro H3 functional assay (cAMP response element driven luciferase reporter); format: cell-based; conditions: CHO(dhfr+)-cre-luc cells expressing human H3 receptor; RαMH 10 nM, forskolin 1 μM; read-out: hH3 functional IC50
Protocol: The functional activity of compounds at the H3 receptor was determined by measuring changes in the level of intracellular cAMP using a cAMP response element driven luciferase reporter assay. The changes in luciferase expression were monitored by a luminescence plate reader, Analyst HT (MDS Analytical). Increases in intracellular cAMP were readily detected upon activation of protein kinase A by forskolin (Sigma) and suppression of this response observed with the application of the H3 receptor agonist RαMH (Sigma).
CHO(dhfr^+)-cre-luc cells stably expressing human H3 receptor were routinely grown as monolayers in Minimal Essential Medium α (MEMα) (Invitrogen) supplemented with 10% dialysed FBS (Hyclone), in 5% CO2 at 37° C. 48 hours prior to assay, cells were seeded in clear-base white walled 384-well plates (Corning) at a density of 5000 cells/well. On the day of assay, growth media was removed and replaced with […] of assay buffer (MEMα, 5 mg/ml fatty acid free BSA (Sigma)) per well. Cells were then incubated for 30 minutes at 37° C., 5% CO2. Compound was serially diluted in DMSO before being diluted 1:10 with assay buffer. 2.5 of compound diluted in assay buffer was added and cells incubated for 5 minutes at 37° C., 5% CO2. 2.5 μl of each reagent was then added in the following order: RαMH (10 nM), isobutylmethylxanthine (1-methyl-3-(2-methylpropyl)-7H-purine-2,6-dione; IBMX) (500 μM) (Sigma) and forskolin (1 μM). Cells were then incubated for 90 minutes at 37° C., 5% CO2, followed by 30 minutes at room temperature. At the end of incubation 25 μl of Steadylite reagent (Perkin Elmer) was added, plates were sealed and placed on a shaker for 5 minutes. The level of light output to determine the level of luciferase expression was then measured.
IC50 values for compounds were determined from ten point half log scale dose-response studies and represent the concentration of compound required to […] 50% inhibition of forskolin stimulated cells in the presence of RαMH alone. Curves were generated using the average of duplicate wells for each data point and analyzed using nonlinear regression of four parameter dose response.

T1 sequence (Q9Y5N1 whole entry): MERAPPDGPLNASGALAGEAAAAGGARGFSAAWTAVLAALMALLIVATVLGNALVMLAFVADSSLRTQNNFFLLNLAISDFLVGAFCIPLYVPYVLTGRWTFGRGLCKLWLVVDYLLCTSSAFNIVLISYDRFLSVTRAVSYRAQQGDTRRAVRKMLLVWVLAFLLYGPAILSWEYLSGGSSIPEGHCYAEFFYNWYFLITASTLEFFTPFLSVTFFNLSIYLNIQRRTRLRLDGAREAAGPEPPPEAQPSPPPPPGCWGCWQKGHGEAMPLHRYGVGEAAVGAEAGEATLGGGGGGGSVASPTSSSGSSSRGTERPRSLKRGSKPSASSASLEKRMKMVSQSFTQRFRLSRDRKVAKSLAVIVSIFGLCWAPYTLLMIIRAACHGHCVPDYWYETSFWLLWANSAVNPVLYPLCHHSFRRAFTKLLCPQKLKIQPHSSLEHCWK

Row | IC50 (human H3 receptor [1]) [nM] | IC50 (human H3 receptor [2]) [nM] | SMILES
1 | 44 | 16 | CNC(=O)c1ccc2c(c1)CCN(C1CCC1)CC2 [Example 24, 3-Cyclobutyl-N-methyl-2,3,4,5-tetrahydro-1H-benzo[d]azepine-7-carboxamide]
2 | 5 | 2 | O=C(NCc1ccsc1)c1ccc2c(c1)CCN(C1CCC1)CC2 [Example 88, 3-Cyclobutyl-N-(thiophen-3-ylmethyl)-2,3,4,5-tetrahydro-1H-benzo[d]azepine-7-carboxamide]
3 | 9 | 30 | O=C(NCc1cccnc1)c1ccc2c(c1)CCN(C1CCC1)CC2 [Example 42, 3-Cyclobutyl-N-(pyridin-3-ylmethyl)-2,3,4,5-tetrahydro-1H-benzo[d]azepine-7-carboxamide]
4 | 14 | 3 | Nc1ncccc1CNC(=O)c1ccc2c(c1)CCN(C1CCC1)CC2 [Example 44, N-((2-Aminopyridin-3-yl)methyl)-3-cyclobutyl-2,3,4,5-tetrahydro-1H-benzo[d]azepine-7-carboxamide]
5 | 13 | 8 | O=C(NC1CCCC1)c1ccc2c(c1)CCN(C1CCC1)CC2 [Example 29, 3-Cyclobutyl-N-cyclopentyl-2,3,4,5-tetrahydro-1H-benzo[d]azepine-7-carboxamide]
6 | 12 | 19 | Cn1cncc1CNC(=O)c1ccc2c(c1)CCN(C1CCC1)CC2 [Example 114, 3-Cyclobutyl-N-((1-methyl-1H-imidazol-5-yl)methyl)-2,3,4,5-tetrahydro-1H-benzo[d]azepine-7-carboxamide]
7 | 3 | 1 | Cn1ccc2c(CNC(=O)c3ccc4c(c3)CCN(C3CCC3)CC4)cccc21 [Example 77, 3-Cyclobutyl-N-((1-methyl-1H-indol-4-yl)methyl)-2,3,4,5-tetrahydro-1H-benzo[d]azepine-7-carboxamide]
8 | 9 | 2 | Cc1c(CNC(=O)c2ccc3c(c2)CCN(C2CCC2)CC3)cnn1C [Example 97, 3-Cyclobutyl-N-((1,5-dimethyl-1H-pyrazol-4-yl)methyl)-2,3,4,5-tetrahydro-1H-benzo[d]azepine-7-carboxamide]
9 | 21 | 4 | O=C(NCc1ccc2c(c1)CCN(C1CCC1)CC2)c1cnccn1 [Example 181, N-((3-cyclobutyl-2,3,4,5-tetrahydro-1H-benzo[d]azepin-7-yl)methyl)pyrazine-2-carboxamide]
10 | 5 | 3 | O=C(NCc1cccc(Cn2cccn2)c1)c1ccc2c(c1)CCN(C1CCC1)CC2 [Example 70, N-(3-((1H-Pyrazol-1-yl)methyl)benzyl)-3-cyclobutyl-2,3,4,5-tetrahydro-1H-benzo[d]azepine-7-carboxamide]
11 | 12 | 1 | Cn1nc(CNC(=O)c2ccc3c(c2)CCN(C2CCC2)CC3)c2ccccc21 [Example 73, 3-Cyclobutyl-N-((1-methyl-1H-indazol-3-yl)methyl)-2,3,4,5-tetrahydro-1H-benzo[d]azepine-7-carboxamide]
12 | 11 | 3 | Cn1nccc1NC(=O)Cc1ccc2c(c1)CCN(C1CCC1)CC2 [Example 221, 2-(3-cyclobutyl-2,3,4,5-tetrahydro-1H-benzo[d]azepin-7-yl)-N-(1-methyl-1H-pyrazol-5-yl)acetamide]
13 | 1 | 2 | O=C(NCc1c[nH]c2ccccc12)c1ccc2c(c1)CCN(C1CCC1)CC2 [Example 72, N-((1H-Indol-3-yl)methyl)-3-cyclobutyl-2,3,4,5-tetrahydro-1H-benzo[d]azepine-7-carboxamide]
14 | 10 | 10 | CC(=O)N1CCC(C(O)Cc2ccc3c(c2)CCN(C2CCC2)CC3)CC1 (racemic) [Example 146, 1-(4-(2-(3-cyclobutyl-2,3,4,5-tetrahydro-1H-benzo[d]azepin-7-yl)-1-hydroxyethyl)piperidin-1-yl)ethanone]
15 | 24 | 7 | OC(Cc1ccc2c(c1)CCN(C1CCC1)CC2)c1ccccn1 (stereo not shown) [Example 143, 2-(3-cyclobutyl-2,3,4,5-tetrahydro-1H-benzo[d]azepin-7-yl)-1-(pyridin-2-yl)ethanol]
16 | 3 | 1 | O=C(NCc1nccs1)c1ccc2c(c1)CCN(C1CCC1)CC2 [Example 86, 3-Cyclobutyl-N-(thiazol-2-ylmethyl)-2,3,4,5-tetrahydro-1H-benzo[d]azepine-7-carboxamide]
17 | 25 | 7 | CCC(=O)N1CCC(C)(C(O)Cc2ccc3c(c2)CCN(C2CCC2)CC3)CC1 (single isomer, unassigned) [Example 257, 1-{4-[2-(3-cyclobutyl-2,3,4,5-tetrahydro-1H-3-benzazepin-7-yl)-1-hydroxyethyl]-4-methylpiperidin-1-yl}propan-1-one]
18 | 18 | 2 | CCCOc1ccc(C(=O)NCc2ccc3c(c2)CCN(C2CCC2)CC3)cn1 [Example 306, N-((3-cyclobutyl-2,3,4,5-tetrahydro-1H-benzo[d]azepin-7-yl)methyl)-6-propoxynicotinamide]
19 | 51 | 6 | CNC(=O)c1ccc(CNC(=O)c2ccc3c(c2)CCN(C2CCC2)CC3)cc1 [Example 53, 3-Cyclobutyl-N-(4-(methylcarbamoyl)benzyl)-2,3,4,5-tetrahydro-1H-benzo[d]azepine-7-carboxamide]
20 | 1 | 4 | Cn1nc(CNC(=O)c2ccc3c(c2)CCN(C2CCC2)CC3)cc1-c1ccccc1 [Example 108, 3-Cyclobutyl-N-((1-methyl-5-phenyl-1H-pyrazol-3-yl)methyl)-2,3,4,5-tetrahydro-1H-benzo[d]azepine-7-carboxamide]
21 | 11 | 2 | O=C(NCc1ccccc1)c1ccc2c(c1)CCN(C1CCC1)CC2 [Example 23, N-Benzyl-3-cyclobutyl-2,3,4,5-tetrahydro-1H-benzo[d]azepine-7-carboxamide]
22 | 4 | 1 | O=C(NCc1ccc(C(F)(F)F)o1)c1ccc2c(c1)CCN(C1CCC1)CC2 [Example 92, 3-cyclobutyl-N-((5-(trifluoromethyl)furan-2-yl)methyl)-2,3,4,5-tetrahydro-1H-benzo[d]azepine-7-carboxamide]
23 | 25 | 10 | COc1ccc(C(=O)NCc2ccc3c(c2)CCN(C2CC(O)C2)CC3)cn1 (stereo not shown) [Example 262, N-((3-(3-hydroxycyclobutyl)-2,3,4,5-tetrahydro-1H-benzo[d]azepin-7-yl)methyl)-6-methoxynicotinamide]
24 | 13 | 1 | Cn1ccc(CCC(=O)c2ccc3c(c2)CCN(C2CCC2)CC3)n1 [Example 134, 1-(3-cyclobutyl-2,3,4,5-tetrahydro-1H-benzo[d]azepin-7-yl)-3-(1-methyl-1H-pyrazol-3-yl)propan-1-one]
25 | 12 | 2 | O=C(NCC1CCCO1)c1ccc2c(c1)CCN(C1CCC1)CC2 (stereo not shown) [Example 36, 3-cyclobutyl-N-((tetrahydrofuran-2-yl)methyl)-2,3,4,5-tetrahydro-1H-benzo[d]azepine-7-carboxamide]
26 | 0.4 | 0.8 | O=C(NCc1ccc2nccn2c1)c1ccc2c(c1)CCN(C1CCC1)CC2 [Example 81, 3-Cyclobutyl-N-(imidazo[1,2-a]pyridin-6-ylmethyl)-2,3,4,5-tetrahydro-1H-benzo[d]azepine-7-carboxamide]
